According to US10660855B2 (priority 2019, dated 2020):

Legend:
[1] = cited from earlier work
[2] = Water-solubility / water-dispersing ability (FIG. 1); type: physicochemical; details: FIG. 1, dispersed in water, bottle A vs bottle B

## Cannabidiol [CBD]
[1]; in vivo
  half-life: about 9 hours
[1]; nasal (inhalation)
  bioavailability when being used nasally (inhalantly): about 31%
[1]; oral
  bioavailability when being used orally: 13-19%
[2]
  water-dispersing ability: insoluble in water
